# Data reported in US20220370625A1, “THERAPEUTIC CONJUGATES” (Totus Medicines Inc., priority 2019, published 2022).
# Molecular target: T1, estrogen receptor (Homo sapiens, UniProt P03372)
# T1 construct: expressed in transfected cells; host or cells: HEK293 (Gibco 293-H), transient transfection with FuGENE HD
# T1 sequence (P03372 1-595): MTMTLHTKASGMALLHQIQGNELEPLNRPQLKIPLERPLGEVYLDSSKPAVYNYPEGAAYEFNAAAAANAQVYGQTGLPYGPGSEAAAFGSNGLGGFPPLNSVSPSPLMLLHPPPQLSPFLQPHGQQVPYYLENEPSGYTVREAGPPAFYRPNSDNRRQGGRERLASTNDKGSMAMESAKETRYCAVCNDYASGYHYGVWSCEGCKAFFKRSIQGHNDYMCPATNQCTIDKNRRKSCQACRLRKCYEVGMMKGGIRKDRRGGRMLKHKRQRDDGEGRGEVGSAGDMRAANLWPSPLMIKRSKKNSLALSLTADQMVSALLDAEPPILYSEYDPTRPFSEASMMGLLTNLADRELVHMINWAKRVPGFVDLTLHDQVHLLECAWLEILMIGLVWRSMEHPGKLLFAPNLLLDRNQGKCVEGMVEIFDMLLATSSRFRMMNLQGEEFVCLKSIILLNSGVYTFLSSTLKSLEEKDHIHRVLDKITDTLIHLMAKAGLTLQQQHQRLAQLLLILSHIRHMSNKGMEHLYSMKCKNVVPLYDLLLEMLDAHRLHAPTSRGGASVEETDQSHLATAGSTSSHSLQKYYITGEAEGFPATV
# Test: NanoBRET screening of ARCS (binding assay with washout) in transfected HEK293 cells
# Conditions: HEK293 cells transfected with NanoLuc-target fusion, estrogen receptor
# Method: Human embryonic kidney 293-H (HEK 293, Gibco 293-H, #11631017) cell lines are maintained in Dulbecco's Modified Eagle Medium, high glucose, pyruvate (DMEM, Gibco, #11995065) supplemented with 10% fetal bovine serum (FBS, Gibco, #10082147) and 1× penicillin-streptomycin (100× solution, Gibco, #15140148) at 37° C. and 5% CO2 in a water-saturated incubator. Cell are trypsinized using 0.05% or 0.25% Trypsin-EDTA solution (Trypsin-EDTA, phenol red, Gibco, #25200056 (0.25%) or #25300054). Opti-MEM media supplemented with 10% fetal bovine serum (Opti-MEM I reduced serum media, no phenol red, Gibco, #11058021) is used for culturing cells overnight for NanoBRET readout experiments.
# HEK293 cells are cultivated appropriately prior to assay. The medium from cell flask is removed via aspiration, washed 1× with PBS followed by aspiration, trypsinized, and cells are allowed to dissociate from the flask. Trypsin is neutralized using growth medium and cells are pelleted via centrifugation at 200×g for 5 minutes. The medium is aspirated and the cells are resuspended into a single cell suspension using Opti-MEM I supplemented with 10% FBS. The cell density is adjusted to 2×10^5/mL in Opti-MEM I supplemented with 10% FBS in a sterile, conical tube. The cells are transfected and aliquoted directly in a 96-well plate for the NanoBRET assay the next day, and therefore, the cells are cultured overnight in Opti-MEM. The cells are also transfected in bulk and dispensed into a 96-well plate to allow cells to adhere to the plate overnight, thereby enabling washout studies.
# The lipid:DNA complexes are prepared as follows:
# A 10 μg/mL solution of DNA is prepared in Opti-MEM without serum. This solution contains the following ratios of carrier DNA and DNA encoding NanoLuc fused to the biological target. Serial dilution steps may be warranted to accurately dilute the NanoLuc fusion DNA. Added, in order, the following reagents to a sterile polystyrene test tube: 1 mL of Opti-MEM without phenol red; 9.0 μg/mL of carrier DNA; 1.0 μg/mL of NanoLuc fusion DNA (for some targets, the amount is less). The reagents are mixed thoroughly. 30 μL of FuGENE HD is added into each mL of DNA mixture to form lipid:DNA complex. […] It is mixed by pipetting up and down 5-10 times and incubated at room temperature for 20 minutes to allow complexes to form. 1 part (e.g. 1 mL) of lipid:DNA complex is mixed with 20 parts (e.g. 20 mL) of HEK293 cells in suspension at 2×10^5/mL and mixed gently by pipetting up and down 5 times in a sterile, conical tube. Larger or smaller bulk transfections are scaled accordingly, using this ratio. 100 μL cells+lipid:DNA complex is dispensed into a sterile, tissue-culture treated 96-well plate (20,000 cells/well), and incubated at least 16 hours to allow expression. The cells are incubated in a 37° C.+5% CO2 incubator for >16 hrs. A serially diluted inhibitor or test compound is prepared at 100× final concentration in 100% DMSO. The serially diluted inhibitor stock is prepared in PCR plates. 1 μL per well of 100× serially diluted inhibitor/test compound is added to the cells in 96-well plates that have been transiently transfected overnight and mixed by tapping the plate by hand. The plate is incubated at 37° C.+5% CO2 incubator overnight. A 1× solution of substrate mix (500× stock) and appropriate concentration of tracer is prepared in Opti-Mem. The cells are washed by setting a plate washer to the 96 well plate 5× in PBS pH 7.4 by adding 200 μL PBS each time. The cells are incubated at 37° C. for 2 hours. 100 μL of the 1× Substrate-Tracer solution is added and the 96 well plate is gently tapped to mix. The plate on plate reader is read every hour for the next 6 hours.
# The binding assays of some ARCS are shown below. Compound 2-314 formed a covalent bond with an estrogen receptor of <20%. Compounds 2-302 and 2-303 formed a covalent bond with an estrogen receptor from about 50% to 70%. […]
row,Binding Potential (Percent inhibition),SMILES
1,++++ (++++ >90%),CC1Cc2c([nH]c3cc(F)ccc23)C(c2c(F)cc(OCCNCC=CC(=O)N(C)C)cc2F)N1CC(C)(F)CO (centres unmarked) [Compound 2-118]
2,++++ (++++ >90%),C[C@@H]1Cc2c([nH]c3ccccc23)[C@@H](c2c(F)cc(OCCNC/C=C/C(=O)N(C)C)cc2F)N1CC(C)(F)CO (some centres unmarked) [Compound 2-106]
3,++++ (++++ >90%),C=CC(=O)NCCc1cc(F)c(C2c3[nH]c4ccccc4c3CC(C)N2CC(C)(C)F)c(F)n1 (centres unmarked) [Compound 2-306]
4,+++ (+++ 80-90%),CC1Cc2c([nH]c3ccccc23)C(c2c(F)cc(OCCNCC=CC(=O)N(C)C)nc2F)N1CC(C)(C)F (centres unmarked) [Compound 2-102]
5,+++ (+++ 80-90%),CC1Cc2c([nH]c3ccccc23)C(c2c(F)cc(N)cc2F)N1CC(C)(C)F (centres unmarked) [Compound 2-301]
6,++++ (++++ >90%),CC1Cc2c([nH]c3ccccc23)C(c2ccc(OCCNCC=CC(=O)N(C)C)nc2)N1CC(C)(C)F (centres unmarked) [Compound 2-315]
7,++++ (++++ >90%),CC1Cc2c([nH]c3ccccc23)C(c2c(F)cc(C=CCNCC=CC(=O)N(C)C)nc2F)N1CC(C)(C)F (centres unmarked) [Compound 2-304]
8,+++ (+++ 80-90%),CC1Cc2c([nH]c3ccccc23)C(c2c(F)cc(NCCNCC=CC(=O)N(C)C)nc2F)N1CC(C)(C)F (centres unmarked) [Compound 2-108]
9,+++ (+++ 80-90%),C#CCCCNC(=O)C=CCNCCOc1cc(F)c(C2c3[nH]c4ccccc4c3CC(C)N2CC(C)(C)F)c(F)c1 (centres unmarked) [Compound 2-300]
10,++++ (++++ >90%),CC#CC(=O)NCCc1cc(F)c(C2c3[nH]c4ccccc4c3CC(C)N2CC(C)(C)F)c(F)c1 (centres unmarked) [Compound 2-310]
11,++++ (++++ >90%),CC1Cc2c([nH]c3ccccc23)C(c2ccc(N)cc2)N1CC(C)(C)F (centres unmarked) [Compound 2-312]
12,++++ (++++ >90%),C=CC(=O)NCCc1ccc(C2c3[nH]c4ccccc4c3CC(C)N2CC(C)(C)F)cn1 (centres unmarked) [Compound 2-305]
13,++++ (++++ >90%),CC1Cc2c([nH]c3cc(F)ccc23)C(c2c(F)cc(OCCNCC=CC(=O)N(C)C)cc2F)N1CC(C)(C)F (centres unmarked) [Compound 2-115]
14,+++ (+++ 80-90%),CC1Cc2c([nH]c3ccccc23)C(c2ccc(NCCNCC=CC(=O)N(C)C)nc2)N1CC(C)(C)F (centres unmarked) [Compound 2-107]
15,+++ (+++ 80-90%),CC1Cc2c([nH]c3ccccc23)C(c2c(F)cc(NCCNCC=CC(=O)N(C)C)cc2F)N1CC(C)(C)F (centres unmarked) [Compound 2-109]
16,++++ (++++ >90%),CC#CC(=O)NCCc1ccc(C2c3[nH]c4ccccc4c3CC(C)N2CC(C)(C)F)cn1 (centres unmarked) [Compound 2-308]
17,++++ (++++ >90%),CC#CC(=O)NCCc1cc(F)c(C2c3[nH]c4ccccc4c3CC(C)N2CC(C)(C)F)c(F)n1 (centres unmarked) [Compound 2-309]
18,++++ (++++ >90%),C=CC(=O)NCCOc1ccc(C2c3[nH]c4ccccc4c3CC(C)N2CC(C)(C)F)cn1 (centres unmarked) [Compound 2-316]
19,++++ (++++ >90%),C=CC(=O)NCCc1cc(F)c(C2c3[nH]c4ccccc4c3CC(C)N2CC(C)(C)F)c(F)c1 (centres unmarked) [Compound 2-307]
20,++ (++ 50-70%),CC1Cc2c([nH]c3ccccc23)C(c2c(F)cc(C=CCNCC=CC(=O)N(C)C)cc2F)N1CC(C)(C)F (centres unmarked) [Compound 2-303]
21,+ (+ <20%),CC1Cc2c([nH]c3ccccc23)C(c2ccc(N)nc2)N1CC(C)(C)F (centres unmarked) [Compound 2-314]
22,++++ (++++ >90%),CC1Cc2c([nH]c3ccccc23)C(c2c(F)cc(OCCNCC=CC(=O)N(C)C)cc2F)N1CC(C)(C)F (centres unmarked) [Compound 2-103]
23,++ (++ 50-70%),CC1Cc2c([nH]c3ccccc23)C(c2ccc(C=CCNCC=CC(=O)N(C)C)nc2)N1CC(C)(C)F (centres unmarked) [Compound 2-302]
24,++++ (++++ >90%),C#CCN(C)C(=O)C=CCNCCOc1cc(F)c(C2c3[nH]c4ccccc4c3CC(C)N2CC(C)(C)F)c(F)c1 (centres unmarked) [Compound 2-311]

# Same assay, conditions: HEK293 cells transfected with NanoLuc-target fusion, overnight incubation, washout
activity of an estrogen receptor is inhibited,formed a covalent bond with an estrogen receptor,SMILES
< 20%,< 20%,CC1Cc2c([nH]c3ccccc23)C(c2ccc(N)nc2)N1CC(C)(C)F (centres unmarked) [Compound 2-314]
